From patent US9839669B2 (priority 2011, dated 2017)
Where two headings read alike, the source gives them in different places.

Experiments:
[1] = test system: HSV-1; type: cell-based, Herpes simplex viruses type 1; conditions: Aciclovir 1.5 mmol
[2] = test system: Vero cells
[3] = test system: BGM cells

With `Nc1nc2c(ncn2COCCO)c(=O)[nH]1` [Aciclovir] the Average relative inhibition ([1]; average over virus dilutions) was 100, the “Number of plaque, Mean value” ([1]; virus dilution 10^−5.0) was 0 and the Relative infectiosity ([1]; virus dilution 10^−5.0) was 0. The Relative inhibition ([1]; virus dilution 10^−5.0) was 100, the “Number of plaque, Mean value” ([1]; virus dilution 10^−5.48) was 0 and the Relative infectiosity ([1]; virus dilution 10^−5.48) was 0. The Relative inhibition ([1]; virus dilution 10^−5.48) was 100, the “Number of plaque, Mean value” ([1]; virus dilution 10^−5.95) was 0 and the Relative infectiosity ([1]; virus dilution 10^−5.95) was 0. The Relative inhibition ([1]; virus dilution 10^−5.95) was 100, the cytotoxicity [2] was “negative” and the cytotoxicity [3] was “negative”.
